The values that follow come from patent US12655150B2 (Cedilla Therapeutics, Inc., priority 2021, dated 2026).

Each structure is given as a SMILES string.

The test concerns NCI-H226. The test is described as follows: 72H TEAD Proliferation Assay (Cell Titer Glo 2.0). The format is cell-based. Conditions: Homo sapiens, NCI-H226, 72 h, CTG 2.0, cell line not given (NCI-H226 responsive, NCI-H28 non-responsive). The method, boiled down: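 Growth read-out is ATP luminescence (CellTiter-Glo 2.0) after 72 h compound exposure, corrected for no-CTG background and day-0 values, with GI50 from nonlinear regression. Sensitive line NCI-H226 (NF2-deficient); non-responsive NCI-H28 (NF2 wild type) distinguishes TEAD-driven from nonspecific growth inhibition.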
The GI50 is the concentration that inhibits growth by half. `CC(C)(C)c1ccc(-c2cncc3c(C(=O)O)c[nH]c23)cc1` [I-97, 7-(4-(tert-Butyl)phenyl)-1H-pyrrolo[3,2-c] pyridine-3-carboxylic acid]: the 50% growth inhibitory concentration (GI50) is > 10000 nM.

Molecule `COC[C@H](C)NC(=O)c1cnc2c(N3CCC(CC(F)(F)F)CC3)cc(OC)cc2c1` [I-253, (S)-6-methoxy-N-(1-methoxypropan-2-yl)-8-(4-(2,2,2-trifluoroethyl)piperidin-1-yl)quinoline-3-carboxamide] registered a 50% growth inhibitory concentration (GI50) of 1000 to 5000 nM.

On to `O=C(O)c1ccc2c(c1)nc(-c1ccc(C3CCCCC3)cc1)c1nccn12` [I-62, 4-(4-Cyclohexylphenyl)imidazo[1,2-a]quinoxaline-7-carboxylic acid], for which the GI50 is > 10000 nM.

Consider `CC(c1ccc(-c2nc3cc(C(=O)O)ccc3n3cccc23)cc1)C(F)(F)F` (centres unmarked) [I-195, 4-(4-(1,1,1-trifluoropropan-2-yl)phenyl)pyrrolo[1,2-a]quinoxaline-7-carboxylic acid], for which the GI50 lay in the range of 1000 to 5000 nM.

On to `C=CC(=O)Nc1cccc2nc(-c3ccc(C(C)(C)C)cc3)c(C)cc12` [I-99, N-(2-(4-(tert-butyl)phenyl)-3-methylquinolin-5-yl)acrylamide], for which the GI50 is > 10000 nM.

Turning to `C=CC(=O)NCc1cc2cc(F)ccc2c(-c2ccc(C(F)(F)F)cc2)n1` [I-299, N-((6-fluoro-1-(4-(trifluoromethyl)phenyl)isoquinolin-3-yl)methyl)acrylamide], the GI50 was ≤ 1000 nM.

For the molecule `COc1cn2ccnc2c(-c2ccc(C(C)(C)C)cc2)n1` [I-149, 8-(4-(tert-Butyl)phenyl)-6-methoxyimidazo[1,2-a]pyrazine], the GI50 is > 10000 nM.

The molecule `CC(O)C(=O)Nc1ccc2c(c1)nc(-c1ccc(C(C)(C)C)cc1)c1cccn12` (centres unmarked) [I-204, N-(4-(4-(tert-Butyl)phenyl)pyrrolo[1,2-a]quinoxalin-7-yl)-2-hydroxypropanamide] had a GI50 of 1000 to 5000 nM.

Molecule `C[C@@H](CO)NC(=O)c1ccc2c(c1)nc(-c1ccc(C(C)(C)C)cc1)c1cccn12` [I-190, (S)-4-(4-(tert-butyl)phenyl)-N-(1-hydroxypropan-2-yl)pyrrolo[1,2-a]quinoxaline-7-carboxamide] showed a 50% growth inhibitory concentration (GI50) of 1000 to 5000 nM.

`Cc1cc(-c2ccc(C(F)(F)F)cc2)nc2cc(C(=O)N[C@@H](C)c3cccc(C(=O)O)c3)ccc12` [I-267, (S)-3-(1-(4-methyl-2-(4-(trifluoromethyl)phenyl)quinoline-7-carboxamido)ethyl)benzoic acid]: the GI50 was ≤ 1000 nM.

As for `O=C(O)c1ccc2c(c1)nc(N1CCC3(CCOCC3)CC1)c1cccn12` [I-27, 4-(3-Oxa-9-azaspiro [5.5]undecan-9-yl) pyrrolo[1,2-a] quinoxaline-7-carboxylic acid], the GI50 was 1000 to 5000 nM.

As to `C=CC(=O)Nc1ccc2c(C)cc(-c3ccc(C(F)(F)F)cc3F)nc2c1` [I-90, N-(2-(2-fluoro-4-(trifluoromethyl)phenyl)-4-methylquinolin-7-yl)acrylamide], the 50% growth inhibitory concentration (GI50) was ≤ 1000 nM.

Regarding `O=C(O)c1ccc2c(c1)nc(N1CCCC(F)(F)C1)c1cccn12` [I-5, 4-(3,3-Difluoropiperidin-1-yl)pyrrolo[1,2-a]quinoxaline-7-carboxylic acid], the concentration for 50% growth inhibition (GI50) is > 10000 nM.

For `COc1nc(-c2ccc(C(F)(F)F)cc2)nc2cc(C(=O)N[C@H](C)CO)ccc12` [I-434, (R)—N-(1-hydroxypropan-2-yl)-4-methoxy-2-(4-(trifluoromethyl)phenyl)quinazoline-7-carboxamide], the 50% growth inhibitory concentration (GI50) is ≤ 1000 nM.

For `C=CC(=O)Nc1ccc2c(c1)nc(-c1ccc(C(C)(C)C)cc1)c1cccn12` [I-119, N-(4-(4-(tert-butyl)phenyl)pyrrolo[1,2-a]quinoxalin-7-yl)acrylamide], the GI50 was ≤ 1000 nM.

`C=CC(=O)Nc1ccc2cnc(-c3ccc(C(C)(C)C)cc3)nc2c1` [I-80, N-(2-(4-(tert-butyl)phenyl)quinazolin-7-yl)acrylamide]: the GI50 was ≤ 1000 nM.

For the molecule `O=C(O)c1ccc2c(c1)nc(-c1ccc(SC(F)(F)F)cc1)c1cccn12` [I-194, 4-(4-((trifluoromethyl)thio)phenyl)pyrrolo[1,2-a]quinoxaline-7-carboxylic acid], the GI50 is ≤ 1000 nM.

With `O=C(O)c1ccc2c(c1)nc(-c1ccc(Cl)cc1)c1cccn12` [I-48, 4-(4-Chlorophenyl)pyrrolo[1,2-a]quinoxaline-7-carboxylic acid], the GI50 is > 10000 nM.

Molecule `C=CC(=O)NCc1cn2ccnc2c(Nc2cccc(OC(F)(F)F)c2)n1` [I-442, N-((8-((3-(trifluoromethoxy)phenyl)amino)imidazo[1,2-a]pyrazin-6-yl)methyl)acrylamide] gave a 50% growth inhibitory concentration (GI50) of 1000 to 5000 nM.

`CC(C)(C)c1ccc(-c2nc(CCC(=O)O)cn3ccnc23)cc1` [I-153, 3-(8-(4-(tert-Butyl)phenyl)imidazo[1,2-a]pyrazin-6-yl)propanoic acid]: the GI50 is > 10000 nM.

`C=CC(=O)Nc1ccc2c(c1)nc(-c1ccc(C(F)(F)F)cn1)c1cccn12` [I-202, N-(4-(5-(trifluoromethyl)pyridin-2-yl)pyrrolo[1,2-a]quinoxalin-7-yl)acrylamide]: the GI50 was ≤ 1000 nM.

In the case of `C=CC(=O)NCc1cn2ccnc2c(N(C)Cc2ccc(C(F)(F)F)cc2)n1` [I-300, N-((8-(methyl(4-(trifluoromethyl)benzyl)amino)imidazo[1,2-a]pyrazin-6-yl)methyl)acrylamide], the 50% growth inhibitory concentration (GI50) is ≤ 1000 nM.

Take `COc1cc(C(F)(F)F)ccc1-c1nc2cc(C(=O)O)ccc2n2cccc12` [I-55, 4-(2-Methoxy-4-(trifluoromethyl)phenyl)pyrrolo[1,2-a]quinoxaline-7-carboxylic acid]: the 50% growth inhibitory concentration (GI50) lay within 5000 to 10000 nM.

On to `C=CC(=O)N(C)Cc1cn2ccnc2c(-c2ccc(C(F)(F)F)cc2)n1` [I-177, N-Methyl-N-((8-(4-(trifluoromethyl)phenyl)imidazo[1,2-a]pyrazin-6-yl)methyl)acrylamide], for which the GI50 is ≤ 1000 nM.

Take `CC(C)(C)c1ccc(-c2cnc3ccc(C(N)=O)cc3n2)cc1` [I-158, 3-(4-(tert-Butyl)phenyl)quinoxaline-6-carboxamide]: the GI50 is > 10000 nM.

Take `O=C(O)c1ccc2c(c1)nc(N1CCC3(CC1)COC3)c1cccn12` [I-29, 4-(2-Oxa-7-azaspiro[3.5]nonan-7-yl)pyrrolo[1,2-a]quinoxaline-7-carboxylic acid]: the GI50 was > 10000 nM.

Turning to `C=CC(=O)NCc1nc(-c2ccc(C(C)(C)C)cc2)c2ccc(F)cc2n1` [I-446, N-((4-(4-(tert-butyl)phenyl)-7-fluoroquinazolin-2-yl)methyl)acrylamide], the 50% growth inhibitory concentration (GI50) was ≤ 1000 nM.

Take `C=CC(=O)NCc1nc(-c2ccc(C(F)(F)F)cc2)cn2ccnc12` [I-408, N-((6-(4-(trifluoromethyl)phenyl)imidazo[1,2-a]pyrazin-8-yl)methyl)acrylamide]: the GI50 is ≤ 1000 nM.

Consider `COc1cc(-c2ccc(C(F)(F)F)cc2)nc2cc(C(=O)N[C@@H](CO)CC(C)C)ccc12` [I-370, (R)—N-(1-hydroxy-4-methylpentan-2-yl)-4-methoxy-2-(4-(trifluoromethyl)phenyl)quinoline-7-carboxamide], for which the GI50 is 1000 to 5000 nM.

In the case of `Cc1cc(-c2ccc(C(F)(F)F)cc2)nc2cc(C(=O)N[C@@H](C)c3cccc(O)c3)ccc12` [I-269, (S)—N-(1-(3-hydroxyphenyl)ethyl)-4-methyl-2-(4-(trifluoromethyl)phenyl)quinoline-7-carboxamide], the concentration for 50% growth inhibition (GI50) was ≤ 1000 nM.

With `O=C(O)c1ccc2c(c1)nc(-c1ccc(OC(F)(F)F)cc1)c1cccn12` [I-192, 4-(4-(trifluoromethoxy)phenyl)pyrrolo[1,2-a]quinoxaline-7-carboxylic acid], the GI50 was ≤ 1000 nM.

`O=C(O)c1ccc2c(c1)nc(N1CCC3(CCCCC3)CC1)c1cccn12` [I-30, 4-(3-Azaspiro[5.5]undecan-3-yl)pyrrolo[1,2-a]quinoxaline-7-carboxylic acid] yielded a concentration for 50% growth inhibition (GI50) of 1000 to 5000 nM.

Take `Cc1ccc(-c2nc3cc(C(=O)O)ccc3n3ccnc23)cc1` [I-66, 4-(p-Tolyl)imidazo[1,2-a]quinoxaline-7-carboxylic acid]: the 50% growth inhibitory concentration (GI50) was in the range of 5000 to 10000 nM.

Consider `O=C(O)c1ccc2c(c1)nc(C1CCC1)c1nccn12` [I-71, 4-Cyclobutylimidazo[1,2-a]quinoxaline-7-carboxylic acid], for which the GI50 was > 10000 nM.

As for `C=CC(=O)NCc1nc(-c2ccc(C(F)(F)F)cc2)c2cccnc2n1` [I-304, N-((4-(4-(trifluoromethyl)phenyl)pyrido[2,3-d]pyrimidin-2-yl)methyl)acrylamide], the concentration for 50% growth inhibition (GI50) was ≤ 1000 nM.

For `CC(C)(C)c1ccc(-c2nc3cc(NC(=O)CO)ccc3n3cccc23)cc1` [I-203, N-(4-(4-(tert-butyl)phenyl)pyrrolo[1,2-a]quinoxalin-7-yl)-2-hydroxyacetamide], the concentration for 50% growth inhibition (GI50) is 1000 to 5000 nM.

`C=CC(=O)NCc1nc(-c2ccc(C(F)(F)F)cc2)cc2nccn12` [I-322, N-((7-(4-(Trifluoromethyl)phenyl)imidazo[1,2-c]pyrimidin-5-yl)methyl)acrylamide]: the GI50 was ≤ 1000 nM.

For the molecule `CC(C)(C)c1ccc(-c2nc3cc(C(=O)NS(=O)(=O)C4CC4)ccc3n3cccc23)cc1` [I-124, 4-(4-(tert-Butyl)phenyl)-N-(cyclopropylsulfonyl)pyrrolo[1,2-a]quinoxaline-7-carboxamide], the 50% growth inhibitory concentration (GI50) is > 10000 nM.

`N#CNCc1cn2ccnc2c(-c2ccc(C(F)(F)F)cc2)n1` [I-238, N-((8-(4-(Trifluoromethyl)phenyl)imidazo[1,2-a]pyrazin-6-yl)methyl)cyanamide] had a 50% growth inhibitory concentration (GI50) of 1000 to 5000 nM.

`O=C(O)c1ccc2c(c1)nc(OC1CCC(C(F)(F)F)CC1)c1cccn12` (mixture of isomers) [I-127, 4-((4-(Trifluoromethyl)cyclohexyl)oxy)pyrrolo[1,2-a]quinoxaline-7-carboxylic acid] had a GI50 of 1000 to 5000 nM.

`CC(C)(C)c1ccc(-c2nc3cc(S(N)(=O)=O)ccc3n3cccc23)cc1` [I-311, 4-(4-(tert-butyl)phenyl)pyrrolo[1,2-a]quinoxaline-7-sulfonamide] gave a GI50 of 1000 to 5000 nM.
